Data as given in paper PMC4936186 (Journal of medicinal chemistry, 2015).
Starred links: 1 amine or outer side, 2 acyl side, 3 side chain; linkers in the order of their positions; H or OH if unused. Positions of bridges follow the written chain, without caps; N, C: chain ends. Non-standard residues stand in square brackets, D forms with d. Residues, ends and D or L forms follow the SMILES beside them. X1 = O=C([C@@H]1C[C@H](n2cc(C3=CC=C[CH]3[Fe][CH]3C=CC=C3)nn2)CN1[*:1])[*:2]

How the values were obtained:
[1] = tested on: HIV-1 gp120; conditions: for Activity in SPR competition binding to gp120 (in words): dual receptor site (sCD4 and 17b) inhibition
[2] = tested on: trypsin; conditions: 37 °C, 5-hour incubation
[3] = tested on: chymotrypsin

Which “Activity in SPR competition binding to gp120 (in words)” value [1] does the source give for CC[C@H](C)[C@H](N)C(=O)N[C@H]1CCC(=O)NCCCC[C@@H](C(N)=O)NC(=O)[C@H](Cc2c[nH]c3ccccc23)NC(=O)[C@@H]2C[C@H](n3cc(C4=CC=C[CH]4[Fe][CH]4C=CC=C4)nn3)CN2C(=O)[C@H]([C@@H](C)CC)NC(=O)[C@H](CC(N)=O)NC1=O (stereo partly shown) [Compound 4] (H-IENI[X1]WK-NH2; lactam 2-7; N-terminus and C-terminus assumed) here?
The value was “enhanced dual receptor site antagonizing activities compared to their non-ferrocene analogues”.

CC[C@H](C)[C@@H]1NC(=O)[C@H](CC(N)=O)NC(=O)[C@@H](N)CC(=O)NCCCC[C@@H](C(N)=O)NC(=O)[C@H](Cc2c[nH]c3ccccc23)NC(=O)[C@@H]2C[C@H](n3cc(CCc4ccccc4)nn3)CN2C1=O [Compound 7] was tested. Which “Enhancement of activity of macrocycle 7 vs 2” value ([1]; SPR, shorter green linker (Asp instead of Glu)) did it give?
The value was “almost two-fold enhanced activity”.

And the “Stability to trypsin (in words)” value [2]?
The value was “completely resistant”.

And the “Stability to chymotrypsin (in words)” value ([3]; 37 °C, 5-hour incubation)?
Its value is “completely resistant”.

What about the “Stability to chymotrypsin (in words), 30 min” value ([3]; 37 °C, 30 minute incubation) of the same compound?
Its value is “almost unchanged”.

What about the “Intactness after chymotrypsin digestion (in words), 40 h” value ([3]; 40 h incubation, HPLC and ESI-MS) of the same compound?
The value was “remained intact”.

For CC[C@H](C)[C@@H]1NC(=O)[C@H](CC(N)=O)NC(=O)[C@@H](N)CC(=O)NCCCC[C@@H](C(N)=O)NC(=O)[C@H](Cc2c[nH]c3ccccc23)NC(=O)[C@@H]2C[C@H](n3cc(C4=CC=C[CH]4[Fe][CH]4C=CC=C4)nn3)CN2C1=O (stereo partly shown) [Compound 9] (H-DNI[X1]WK-NH2; lactam 1-6; C-terminus assumed), which “Activity in SPR competition binding to gp120 (in words)” value [1] is on record?
Its value is “enhanced dual receptor site antagonizing activities compared to their non-ferrocene analogues”.
